According to patent publication US20240391931A1 (Bristol-Myers Squibb Company, priority 2021, published 2024):

molecular target: T1, EGFR WT (Homo sapiens, UniProt P00533); experiment: Enzymatic assay EGFR WT (method c); type: biochemical; conditions: [EGFR WT]=2 nM, [ATP]=1 mM, [Peptide 22]=1 μM
T1 construct: purchased Thermo Fisher, Carlsbad, CA ERBB1 PR7295B
Summary of the method: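 Microfluidic mobility-shift kinase assay with Peptide 22 (1 μM) in HEPES pH 7.5, MnCl2, MgCl2, Tween 20, TCEP. HER2 WT 12.5 nM and HER2 YVMA 5 nM each used 25 μM ATP; EGFR WT 2 nM used 1 mM ATP. IC50 came from initial-velocity (0–3600 s) percent inhibition, fitted to a variable-slope model.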

T1 sequence (P00533 25-1210): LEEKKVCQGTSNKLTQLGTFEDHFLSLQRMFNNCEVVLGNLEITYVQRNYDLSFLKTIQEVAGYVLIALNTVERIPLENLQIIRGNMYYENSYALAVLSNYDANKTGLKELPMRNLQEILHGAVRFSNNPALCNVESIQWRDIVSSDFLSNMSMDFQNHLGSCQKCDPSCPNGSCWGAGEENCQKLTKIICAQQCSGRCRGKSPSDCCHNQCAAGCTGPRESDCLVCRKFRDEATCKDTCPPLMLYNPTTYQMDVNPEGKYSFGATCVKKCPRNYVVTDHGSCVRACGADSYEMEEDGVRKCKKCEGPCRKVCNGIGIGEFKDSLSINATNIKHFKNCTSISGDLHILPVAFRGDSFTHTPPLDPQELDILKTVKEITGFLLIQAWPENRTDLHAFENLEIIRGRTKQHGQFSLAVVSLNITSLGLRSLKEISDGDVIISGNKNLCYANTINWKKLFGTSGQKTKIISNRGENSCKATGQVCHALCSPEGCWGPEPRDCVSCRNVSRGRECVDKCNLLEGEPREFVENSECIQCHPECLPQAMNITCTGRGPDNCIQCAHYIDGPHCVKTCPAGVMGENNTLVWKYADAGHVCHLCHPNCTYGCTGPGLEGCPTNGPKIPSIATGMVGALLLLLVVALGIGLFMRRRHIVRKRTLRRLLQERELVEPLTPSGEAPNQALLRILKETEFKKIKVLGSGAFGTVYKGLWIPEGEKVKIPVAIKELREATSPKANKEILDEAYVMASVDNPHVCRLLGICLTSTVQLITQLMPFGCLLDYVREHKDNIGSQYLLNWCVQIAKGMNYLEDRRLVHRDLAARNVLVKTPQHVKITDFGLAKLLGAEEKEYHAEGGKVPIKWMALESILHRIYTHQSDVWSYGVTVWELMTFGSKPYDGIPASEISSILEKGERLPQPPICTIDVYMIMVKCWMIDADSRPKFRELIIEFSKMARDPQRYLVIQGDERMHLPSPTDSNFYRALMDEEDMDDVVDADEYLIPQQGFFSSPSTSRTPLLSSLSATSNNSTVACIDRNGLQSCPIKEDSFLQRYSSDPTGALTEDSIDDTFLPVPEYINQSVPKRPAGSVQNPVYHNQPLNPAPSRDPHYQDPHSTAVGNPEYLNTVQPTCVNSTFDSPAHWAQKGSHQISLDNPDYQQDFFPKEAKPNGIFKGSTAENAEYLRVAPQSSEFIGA

IC50	Compound
1 to 10 µM	O=C(/C=C/CN1CC2CC1CO2)N1CCc2c(sc3ncnc(Nc4ccc(Oc5ccc6ncnn6c5)c(Cl)c4)c23)C1 (centres unmarked) [Compound 87]
> 10 µM	O=C(/C=C/CN1CC2CCC(C2)C1)N1CCc2c(sc3ncnc(Nc4ccc(Oc5ccc6ncnn6c5)c(Cl)c4)c23)C1 [Compound 88]
> 10 µM	CN(C/C=C/C(=O)N1CCc2c(sc3ncnc(Nc4ccc(Oc5ccc6ncnn6c5)c(Cl)c4)c23)C1)C(C)(C)C [Compound 91]
> 10 µM	O=C(/C=C/CN1CC2C(CO)C2C1)N1CCc2c(sc3ncnc(Nc4ccc(Oc5ccc6ncnn6c5)c(Cl)c4)c23)C1 (centres unmarked) [Compound 92]
> 10 µM	C=CC(=O)N1CCc2[nH]c3ncnc(Nc4ccc(Oc5ccc(C)nc5)c(C)c4)c3c2C1 [Compound 94, 1-(4-((3-methyl-4-((6-methylpyridin-3-yl)oxy)phenyl)amino)-7,8-dihydro-5H-pyrido[3′,4′:4,5]pyrrolo[2,3-d]pyrimidin-6(9H)-yl)prop-2-en-1-one]
> 10 µM	CCOC/C=C/C(=O)N1CCc2c(sc3ncnc(Nc4ccc(Oc5ccc(C)nc5)c(C)c4)c23)C1 [Compound 96, (E)-4-ethoxy-1-(4-((3-methyl-4-((6-methylpyridin-3-yl)oxy)phenyl)amino)-5,8-dihydropyrido[4′,3′:4,5]thieno[2,3-d]pyrimidin-7(6H)-yl)but-2-en-1-one]
> 10 µM	Cc1ccc(Oc2ccc(Nc3ncnc4[nH]c5c(c34)CN(C(=O)/C=C/CN(C)C)CC5)cc2C)cn1 [Compound 97, (E)-4-(dimethylamino)-1-(4-((3-methyl-4-((6-methylpyridin-3-yl)oxy)phenyl)amino)-5,7,8,9-tetrahydro-6H-pyrido[3′,4′:4,5]pyrrolo[2,3-d]pyrimidin-6-yl)but-2-en-1-one]
> 10 µM	Cc1ccc(Oc2ccc(Nc3ncnc4sc5c(c34)CCCN(C(=O)/C=C/CN(C)C)C5)cc2C)cn1 [Compound 101, (E)-4-(Dimethylamino)-1-(4-((3-methyl-4-((6-methylpyridin-3-yl)oxy)phenyl)amino)-6,7-dihydro-5H-pyrimido[5′,4′:4,5]thieno[2,3-c]azepin-8(9H)-yl)but-2-en-1-one]
> 10 µM	C=CC(=O)N1CCc2[nH]c3ncnc(Nc4ccc(Oc5ccc6ncnn6c5)c(C)c4)c3c2C1 [Compound 102, 1-(4-((4-([1,2,4]triazolo[1,5-a]pyridin-6-yloxy)-3-methylphenyl)amino)-5,7,8,9-tetrahydro-6H-pyrido[3′,4′:4,5]pyrrolo[2,3-d]pyrimidin-6-yl)prop-2-en-1-one]
> 10 µM	Cc1cc(Nc2ncnc3sc4c(c23)CN(C(=O)/C=C/CN(C)C)CC4)ccc1Oc1ccc2ncnn2c1 [Compound 103, (E)-1-(4-((4-([1,2,4]triazolo[1,5-a]pyridin-6-yloxy)-3-methylphenyl)amino)-7,8-dihydropyrido[3′,4′:4,5]thieno[2,3-d]pyrimidin-6(5H)-yl)-4-(dimethylamino)but-2-en-1-one]
> 10 µM	Cc1cc(Nc2ncnc3sc4c(c23)CCN(C(=O)/C=C/CN(C)C)C4)ccc1Oc1ccc2nonc2c1 [Compound 104, (E)-1-(4-((4-(Benzo[c][1,2,5]oxadiazol-5-yloxy)-3-methylphenyl)amino)-5,6-dihydropyrido[4′,3′:4,5]thieno[2,3-d]pyrimidin-7(8H)-yl)-4-(dimethylamino)but-2-en-1-one]
